# Source: US9439906B2, “Dosing regimen associated with long acting injectable paliperidone esters” (Janssen Pharmaceutica NV, priority 2007, dated 2016)
# Assays:
# [1] = Pharmacokinetics in phase 3 study R092670-PSY-3007; format: in vivo, human; details: Day 8, 3 dose groups
# Protocol: Subjects without source documentation of previous exposure to at least 2 doses of oral risperidone or paliperidone extended-release (ER), at least 1 dose of i.m. RISPERDAL® CONSTA® or paliperidone palmitate, or who were not currently receiving an antipsychotic medication were given 4 to 6 days of paliperidone ER 6 mg/day (or the option of oral risperidone 3 mg/day for subjects in Malaysia) for tolerability testing. Subjects who had source documentation of previous exposure to the above medications and were currently taking another antipsychotic regimen continued their current treatment through Day-1. At the beginning of the double-blind treatment period, subjects were randomly assigned in a 1:1:1:1 ratio to 1 of 4 treatment groups: placebo or paliperidone palmitate 25 mg eq., 100 mg eq., or 150 mg eq. Study medication was administered as 4 doses: an initial i.m. injection of 150 mg eq. of paliperidone palmitate or placebo followed by 3 fixed i.m. doses of placebo or paliperidone palmitate [25, 100, or 150 mg eq.] on Days 8, 36, and 64. The initial injection of study medication was given in the deltoid muscle. Subsequent injections were given either in the deltoid or gluteal muscle at the discretion of the investigator. […] Efficacy and safety were evaluated regularly throughout the study. […]
# [2] = tested on: subjects with schizophrenia; test: Efficacy in phase 3 placebo-controlled study R092670-PSY-3007 (PANSS, PSP, CGI-S); format: in vivo, human; details: for PANSS Total Score End point Mean (SD): LOCF; for PANSS Total Score Change from Baseline Mean (SD): end point LOCF, placebo −2.9; for mean improvement in the PSP score from baseline to end point: placebo 1.7; for subjects who achieved responder status (30% or larger decrease on PANSS total scores): placebo 20.0%
# Description: The study included a screening period of up to 7 days and a 13-week double-blind treatment period. The screening period included a washout of disallowed psychotropic medications. […] Subjects who had source documentation of previous exposure to the above medications and were currently taking another antipsychotic regimen continued their current treatment through Day-1. At the beginning of the double-blind treatment period, subjects were randomly assigned in a 1:1:1:1 ratio to 1 of 4 treatment groups: placebo or paliperidone palmitate 25 mg eq., 100 mg eq., or 150 mg eq. Study medication was administered as 4 doses: an initial i.m. injection of 150 mg eq. of paliperidone palmitate or placebo followed by 3 fixed i.m. doses of placebo or paliperidone palmitate [25, 100, or 150 mg eq.] on Days 8, 36, and 64. The initial injection of study medication was given in the deltoid muscle. Subsequent injections were given either in the deltoid or gluteal muscle at the discretion of the investigator. Randomized subjects were to remain in the study for 28 days after the last injection on Day 64 with the end of study visit scheduled for Day 92 during the double-blind period. The entire study, including the screening period, lasted approximately 14 weeks. Samples for pharmacokinetic (PK) evaluation were collected on Day 1, prior to the first injection and on Days 2, 4, 6, 8, 15, 22, 36, 64 and 92. Efficacy and safety were evaluated regularly throughout the study. A pharmacogenomic blood sample (10 mL) was collected from subjects who gave separate written informed consent for this part of the study. Participation in the pharmacogenomic research was optional. Approximately 105 to 115 mL of whole blood was collected during the study. The primary endpoint was the change in the PANSS total score from baseline (i.e., the start of double-blind treatment, Day 1) to the end of the double-blind treatment period (i.e., Day 92 or the last post baseline assessment). The key secondary efficacy endpoint was the change in the Personal and Social Performance Scale (PSP) from baseline to the end of the double-blind treatment period. The other secondary efficacy endpoint was the change in the Clinical Global Impression-Severity (CGI-S) scores from baseline to the end of the double-blind treatment period. Other endpoints included the change from baseline in subject ratings of sleep quality and daytime drowsiness using a visual analogue scale (VAS), the onset of therapeutic effect, responder rate, and the change from baseline to end point in PANSS subscales and […] factors. All randomized subjects who received at least 1 dose of double-blind study drug and had both baseline and at least one post baseline efficacy measurement (PANSS, PSP, or CGI-S) during the double-blind treatment period were included in the intent-to-treat efficacy analyses. […] This procedure is referred to as the Dunnett-Bonferroni-based parallel gatekeeping procedure. The change from baseline in PANSS total score at each visit and at end point was analyzed using an analysis of covariance (ANCOVA) model. The last observation carried forward (LOCF) method was used. The model included treatment and country as factors and baseline PANSS total score as a covariate. Treatment effect was based on the difference in least-squares mean change. […] Treatment-by-country and treatment-by-baseline PANSS total score interactions were explored using the same ANCOVA model as the one for the analysis of the primary endpoint. If either term was statistically significant at the predefined 2-sided significance level of 0.10, further evaluations of the effect of other covariates were to be performed to assess the nature of the interaction and identify possible causes. […] The analysis of the key secondary endpoint, change in PSP score at end point, was conducted by means of an ANCOVA model with treatment and country as factors and the baseline score as the covariate. […]
# [3] = Safety and local tolerability in the gluteal versus deltoid multiple-dose study; details: for mean injection site pain VSA score: day 1, 8 hours after injection
# [4] = Treatment-emergent adverse events in the single-dose dose-proportionality study; details: single dose 25-150 mg-eq.
# Description: The subjects were assigned into eight treatment groups: paliperidone palmitate 25 (n=48), 50 (n=50), 100 (n=51) or 150 (n=52) mg-eq. injected into either the deltoid or gluteal muscle.
# [5] = 100 mg-eq., combined injection sites
compound,measurement,setting,value
"CCCCCCCCCCCCCCCC(=O)OC1CCCn2c1nc(C)c(CCN1CCC(c3noc4cc(F)ccc34)CC1)c2=O (racemic) [paliperidone palmitate, (±)-3-[2-[4-(6-fluoro-1,2-benzisoxazol-3-yl)-1-piperidinyl]ethyl]-6,7,8,9-tetrahydro-2-methyl-4-oxo-4H-pyrido[1,2-α]pyrimidin-9-yl hexadecanoate]",median paliperidone plasma concentrations in high BMI compared to low BMI (<25 kg/m^2) subjects,[1],lower
same,earliest time point of statistically significant improvement over placebo in change in PANSS total score,[2]; 25 mg eq. and 150 mg eq. groups,Day 8
same,"PANSS Total Score change, Diff of LS Means (SE) versus placebo",[2]; 25 mg eq. group,−5.1 (2.01)
same,PANSS Total Score End point Mean (SD),"[2]; 25 mg eq. group (150 mg eq. Day 1, then 25 mg eq. Days 8, 36, 64)",78.8 (19.88)
same,PANSS Total Score Change from Baseline Mean (SD),[2]; 25 mg eq. group,−8.0 (19.90)
same,mean improvement in the PSP score from baseline to end point,[2]; 25 mg eq. group,2.9
same,subjects who achieved responder status (30% or larger decrease on PANSS total scores),[2]; 25 mg eq. group,33.5%
same,"PANSS Total Score change, Diff of LS Means (SE) versus placebo",[2]; 100 mg eq. group,−8.7 (2.00)
same,PANSS Total Score End point Mean (SD),"[2]; 100 mg eq. group (150 mg eq. Day 1, then 100 mg eq. Days 8, 36, 64)",74.6 (18.06)
same,PANSS Total Score Change from Baseline Mean (SD),[2]; 100 mg eq. group,−11.6 (17.63)
same,mean improvement in the PSP score from baseline to end point,[2]; 100 mg eq. group,6.1
same,subjects who achieved responder status (30% or larger decrease on PANSS total scores),[2]; 100 mg eq. group,41.0%
same,"PANSS Total Score change, Diff of LS Means (SE) versus placebo",[2]; 150 mg eq. group,−9.8 (2.00)
same,PANSS Total Score End point Mean (SD),"[2]; 150 mg eq. group (150 mg eq. Days 1, 8, 36, 64)",75.2 (18.59)
same,PANSS Total Score Change from Baseline Mean (SD),[2]; 150 mg eq. group,−13.2 (18.48)
same,mean improvement in the PSP score from baseline to end point,[2]; 150 mg eq. group,8.3
same,subjects who achieved responder status (30% or larger decrease on PANSS total scores),[2]; 150 mg eq. group,40.0%
same,time point as of which improvement over placebo in change in PANSS total score was statistically significant,[2]; all 3 dose groups,Day 22
same,adverse event: diastolic hypotension,[3]; [5],12%
same,adverse event: hypotension,[3]; [5],14%
same,adverse event: injection site pain,[3]; [5],14%
same,adverse event: orthostatic hypotension,[3]; [5],24%
same,deaths in the study,"[3]; 100 mg-eq., four injections",no deaths
same,serious adverse events (worsening of psychosis) that led to discontinuations,"[3]; 100 mg-eq., four injections",four
same,tolerability,"[3]; 100 mg-eq., four injections",well tolerated
same,mean injection site pain VSA score,[3]; deltoid,10.8
same,mean injection site pain VSA score,[3]; gluteal,3.3
same,Treatment-emergent AE: headache,[4],7%
same,Treatment-emergent AE: insomnia,[4],5%
same,Treatment-emergent AE: schizophrenia,[4],6%
same,Treatment-emergent AE: tachycardia,[4],10%
same,deaths,[4],No deaths
same,subjects discontinued due to TEAs,[4],2%
